Laboratory results from patent publication US8203033B2, “Methods and compositions for providing tolerance to multiple herbicides” (Pioneer Hi-Bred International, Inc., priority 2005, dated 2012).

Assays:
Format in all cases: in vivo
[1] = test system: parent elite stiff stalk inbred corn; assay: Preemergence test of ALS herbicides on corn (fresh weight, visual injury); details: 200 g/ha, mean of four replications; for Fresh Weight: fresh shoots weighed 4 weeks after treatment; for % Visual Injury: 0% no injury, 100% plant death
[2] = test system: Heterozygous GAT-HRA corn; assay: as above; details: 200 g/ha, mean of four replications; for Fresh Weight: fresh shoots weighed 4 weeks after treatment; for % Visual Injury: 0% no injury, 100% plant death
[3] = test system: parent elite stiff stalk inbred corn; assay: Postemergence test of herbicides on corn (fresh weight, visual injury)
[4] = test system: Heterozygous GAT-HRA corn; assay: as above; details: for Fresh Weight: fresh shoots weighed 2 weeks after treatment
GAT-HRA maize = assay: Evaluation of herbicide tolerance, spray at V2 stage; details: postemergence; tribenuron, chlorimuron, imazapyr 200 g ai/ha; metsulfuron-methyl 35 g ai/ha
Experimental: GAT-HRA maize plants were evaluated for tolerance to glyphosate and other herbicides. One protocol used in this evaluation was as follows. At the V2 stage (Ritchie and Hanway (1982), “How a corn plant develops” Spec. Rep. 48. (Coop. Ext. Ser., Iowa State Univ., Ames, Iowa)), plant heights were measured and herbicides were applied by spray application. Ten to fourteen days after the spray application, the transgenic plants were evaluated for injury symptoms and measured for plant height again in order to determine plant growth rates.
Plants were then evaluated at various times after treatment, such as 10 or 14 days after treatment. […] Leaf samples were taken from GAT-HRA plants and used in quantitative PCR analysis and other analyses to determine the number and arrangement of copies of the GAT and HRA polynucleotides that had been integrated into the plant genome.
Other protocols for evaluation included treatment with imidazolinone herbicides, such as the commercial herbicide Lightning® (a combination of imazapyr and imazethapyr), which was applied to GAT-HRA maize at the V2 leaf stage at four times the field label rate (250 g ai/ha). […] Another protocol for evaluation included treatment with imidazolinone herbicides as well as sulfonylurea and glyphosate herbicides. In these tests, GAT-HRA maize was treated with various combinations of Lightning® (imazapyr and imazethapyr), Basis® (rimsulfuron and thifensulfuron-methyl) and WeatherMAX® (glyphosate potassium salt). These herbicides were applied at the V2 stage as follows: Lightning® at twice the field label rate (1.8 oz ai/ac (133 ml ai/ha)), Basis® at twice the field label rate (0.5 oz ai/ac (36.9 ml ai/ha)) and WeatherMax® at four times the field label rate (43 oz ai/ac). Fourteen days after the treatment application, the plants were evaluated. […] “Field label rate” refers to the application rate specified on the product label. Where the application rate for a particular situation is a range of rates, as used herein, the term “field label rate” indicates the upper end of that range. […]

control maize = assay: as above; details: postemergence; tribenuron, chlorimuron, imazapyr 200 g ai/ha; metsulfuron-methyl 35 g ai/ha
[5] = test system: Hairy Fleabane (Conyza bonariensis); assay: Glyphosate, metsulfuron-methyl and two additives on the control of hairy fleabane
Experimental: This example included the same treatments as used in Example 11, except the treatments were carried out on a glyphosate sensitive biotype of Kleinskraalhans (Conyza bonariensis).

[6] = test system: non-glyphosate resistant ryegrass (70-04); assay: Glyphosate, metsulfuron-methyl and two additives on the control of ryegrass; details: 5-6 leaf stage
Experimental: The example was conducted on non-glyphosate resistant ryegrass. As provided in Table 23, all treatments that included glyphosate [180 g a.i. L ha^−1 (0.5 L glyphosate (SCAT®))] plus metsulfuron-methyl (BRUSH-OFF®) (5 and 10 g ha^−1) gave 100% control of the ryegrass.

[7] = 200 g/ha, 0% no injury, 100% plant death, mean of four replications
[8] = 200 g/ha, fresh shoots weighed 2 weeks after treatment, mean of four replications
[9] = 200 g/ha, mean of four replications

Compound	Fresh Weight [1] [g]	Fresh Weight [2] [g]	% Visual Injury [3, 7] [%]	Fresh Weight [3, 8] [g]	% Visual Injury [4, 7] [%]	Fresh Weight [4, 9] [g]	% Visual Injury [1] [%]	% Visual Injury [2] [%]	other results
CCOc1nc(F)cc2nc(S(=O)(=O)Nc3c(Cl)cccc3C(=O)OC)nn12 [Chloransulam-methyl, methyl 3-chloro-2-[[(5-ethoxy-7-fluoro-[1,2,4]triazolo[1,5-c]pyrimidin-2-yl)sulfonyl]amino]benzoate]	5.5	44.9	96	6.8	3	104.4	–	–	–
CCOC(=O)c1ccccc1S(=O)(=O)NC(=O)Nc1nc(Cl)cc(OC)n1 [Chlorimuron-ethyl, ethyl 2-[[[[(4-chloro-6-methoxy-2-pyrimidinyl)amino]carbonyl]amino]sulfonyl]-benzoate]	9.3	–	93	–	15	–	100	10	damage from the treatment (GAT-HRA maize): no significant damage; damage from the treatment (control maize): severely damaged or killed
CCOc1nc(NC)nc(NC(=O)NS(=O)(=O)c2ccccc2C(=O)OC)n1 [Ethametsulfuron-methyl, methyl 2-[[[[[4-ethoxy-6-(methylamino)-1,3,5-triazin-2-yl]amino]carbonyl]amino]sulfonyl]benzoate]	1.6	–	96	5.6	6	98.0	100	88	–
COc1nn(C(=O)NS(=O)(=O)c2ccccc2OC(F)(F)F)c(=O)n1C [Flucarbazone Na^+, 4,5-dihydro-3-methoxy-4-methyl-5-oxo-N-[[2-(trifluoromethoxy)phenyl]sulfonyl]-1H-1,2,4-triazole-1-carboxamide]	0.0	48.8	100	3.1	14	86.0	100	40	–
COC(=O)c1ccc(C(F)(F)F)nc1S(=O)(=O)NC(=O)Nc1nc(OC)cc(OC)n1 [Flupyrsulfuron-methyl Na^+, methyl 2-[[[[(4,6-dimethoxy-2-pyrimidinyl)amino]carbonyl]amino]sulfonyl]-6-(trifluoromethyl)-3-pyridinecarboxylate]	23.6	45.8	95	5.2	4	95.5	87	90	–
CP(=O)(O)CCC(N)C(=O)O (stereo not shown) [Glufosinate ammonium]	–	–	–	–	–	–	–	–	% Visual Injury ([3]; 1870 g/ha): 99%; Fresh Weight ([3]; 1870 g/ha, 2 weeks after treatment): 2.4 g; % Visual Injury ([4]; 1870 g/ha): 1%
COC(=O)c1c(Cl)nn(C)c1S(=O)(=O)NC(=O)Nc1nc(OC)cc(OC)n1 [Halosulfuron-methyl, methyl 3-chloro-5-[[[[(4,6-dimethoxy-2-pyrimidinyl)amino]-carbonyl]amino]sulfonyl]-1-methyl-1H-pyrazole-4-carboxylate]	–	–	14	–	8	–	30	15	–
CC(C)C1(C)N=C(c2ncccc2C(=O)O)NC1=O (stereo not shown) [Imazapyr]	–	–	–	–	–	–	–	–	damage from the treatment (GAT-HRA maize): no significant damage; damage from the treatment (control maize): severely damaged or killed
COC(=O)c1ccc(I)cc1S(=O)(=O)NC(=O)Nc1nc(C)nc(OC)n1 [Iodosulfuron-methyl Na^+, methyl 4-iodo-2-[[[[(4-methoxy-6-methyl-1,3,5-triazin-2-yl)amino]carbonyl]amino]sulfonyl]benzoate]	24.4	52.5	100	3.5	1	95.0	92	5	–
COC(=O)c1ccccc1S(=O)(=O)NC(=O)Nc1nc(C)nc(OC)n1 [Metsulfuron-methyl (BRUSH-OFF ®)]	–	–	–	–	–	–	–	–	Control (%) ([5]; Trial 2: metsulfuron-methyl (BRUSH-OFF) 5 g/ha): 100%; Control (%) ([5]; Trial 3: metsulfuron-methyl (BRUSH-OFF) 10 g/ha): 100%
COC(=O)c1ccccc1S(=O)(=O)NC(=O)Nc1nc(C)nc(OC)n1 [Metsulfuron-methyl, methyl 2-[[[[(4-methoxy-6-methyl-1,3,5-triazin-2-yl)amino]carbonyl]amino]sulfonyl]benzoate]	0.0	–	–	–	–	–	–	–	damage from the treatment (GAT-HRA maize): no significant damage; damage from the treatment (control maize): severely damaged or killed; effect on the ryegrass, on its own [6]: did nothing accept stunt the ryegrass plants slightly
CCCOc1nn(C(=O)NS(=O)(=O)c2ccccc2C(=O)OC)c(=O)n1C [Propoxycarbazone Na^+, methyl 2-[[[(4,5-dihydro-4-methyl-5-oxo-3-propoxy-1H-1,2,4-triazol-1-yl)carbonyl]amino]sulfonyl]benzoate]	0.6	46.7	100	1.9	9	101.2	100	100	–
CO/N=C(/C)c1cccc(Oc2nc(OC)cc(OC)n2)c1C(=O)OC [Pyriminobac-methyl]	–	–	93	7.6	4	–	83	20	–
COc1cc(OC)nc(Sc2cccc(Cl)c2C(=O)[O-])n1.[Na+] [Pyrithiobac Na^+, Pyrithiobac]	0.0	48.6	–	2.8	–	87.9	–	–	–
COC(=O)c1ccccc1S(=O)(=O)NC(=O)Nc1nc(C)cc(C)n1 [Sulfometuron-methyl, methyl 2-[[[[(4,6-dimethyl-2-pyrimidinyl)amino]carbonyl]amino]sulfonyl]-benzoate]	0.0	–	100	2.0	2	–	100	6	–
COc1cc(OC)nc(NC(=O)NS(=O)(=O)c2ncccc2OCC(F)(F)F)n1 [Trifloxysulfuron Na^+, N-[[(4,6-dimethoxy-2-pyrimidinyl)amino]-carbonyl]-3-(2,2,2-trifluoroethoxy)-2-pyridinesulfonamide]	0.0	–	100	1.0	29	–	100	0	–
COC(=O)c1cccc(C)c1S(=O)(=O)NC(=O)Nc1nc(OCC(F)(F)F)nc(N(C)C)n1 [Triflusulfuron-methyl]	–	–	–	2.1	–	–	–	–	–
O=C(O)CNCP(=O)(O)O [glyphosate (ROUNDUP ®)]	–	–	–	–	–	–	–	–	Control (%) ([5]; Trial 1: glyphosate (ROUNDUP) 0.5 L/ha): 12%
Imazamethabenz-methyl	–	–	–	–	–	95.0	–	–	–
